In patent US20260317319A1, “NOVEL ERGOLINES AND METHODS OF TREATING MOOD DISORDERS” (Gilgamesh Pharma Inc., priority 2023, published 2026):

Molecular target: 5-HT2A receptor (Homo sapiens, UniProt P28223)
Test: biochemical
Format: binding
Parameters: expressed in transfected cells; host or cells: HEK293, stably transfected
Conditions: [3H]ketanserin 1 nM; HEK293 stable cell line; 1 h, 25 °C
Experimental: Affinity of the test compounds for the 5-HT2A receptor was determined in radioligand binding experiments with [^3H]ketanserin by WuXi AppTec (Hong Kong) Limited, using methods adapted from the literature and under conditions described in Table 1.

Sequence of 5-HT2A receptor (P28223 whole entry): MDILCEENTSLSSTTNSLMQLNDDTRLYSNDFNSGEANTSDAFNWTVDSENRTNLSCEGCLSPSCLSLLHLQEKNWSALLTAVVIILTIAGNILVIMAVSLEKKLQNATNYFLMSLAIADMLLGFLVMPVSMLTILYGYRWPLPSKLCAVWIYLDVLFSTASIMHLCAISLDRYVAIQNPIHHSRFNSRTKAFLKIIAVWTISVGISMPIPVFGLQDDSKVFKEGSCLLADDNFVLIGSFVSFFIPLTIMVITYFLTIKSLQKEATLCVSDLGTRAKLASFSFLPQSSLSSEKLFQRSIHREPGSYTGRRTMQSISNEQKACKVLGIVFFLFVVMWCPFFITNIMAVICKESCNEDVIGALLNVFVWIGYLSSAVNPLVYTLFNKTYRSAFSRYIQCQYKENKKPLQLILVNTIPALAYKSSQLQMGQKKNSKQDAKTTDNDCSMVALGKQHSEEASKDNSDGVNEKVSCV

| Structure (SMILES) | Ki |
| --- | --- |
| CCN(CC)C(=O)[C@H]1C=C2c3cccc4[nH]cc(c34)C[C@H]2N(Cc2cccc(F)c2)C1 [Compound 52a, (6aR,9S)—N,N-diethyl-7-(3-fluorobenzyl)-4,6,6a,7,8,9-hexahydroindolo[4,3-fg]quinoline-9-carboxamide] | > 1230 nM |
| CCN(CC)C(=O)[C@H]1C=C2c3cccc4[nH]cc(c34)C[C@H]2N(Cc2ccc(F)c(F)c2)C1 [Compound 54a, (6aR,9S)-7-(3,4-difluorobenzyl)-N,N-diethyl-4,6,6a,7,8,9-hexahydroindolo[4,3-fg]quinoline-9-carboxamide] | 289 nM |
| [2H]C([2H])(c1cccc(OC)c1)N1C[C@@H](C(=O)N(CC)CC)C=C2c3cccc4[nH]cc(c34)C[C@H]21 [Compound 68a, (6aR,9S)—N,N-diethyl-7-((3-methoxyphenyl)methyl-d2)-4,6,6a,7,8,9-hexahydroindolo[4,3-fg]quinoline-9-carboxamide] | > 1230 nM |
| C[C@H]1C[C@H](C)N1C(=O)[C@H]1C=C2c3cccc4[nH]cc(c34)C[C@H]2N(Cc2ccccc2)C1 [Compound 87a, ((6aR,9S)-7-benzyl-4,6,6a,7,8,9-hexahydroindolo[4,3-fg]quinolin-9-yl)((2S,4S)-2,4-dimethylazetidin-1-yl)methanone] | 1140 nM |
| COc1cccc(CN2C[C@H](C(=O)N3CCCC3)C=C3c4cccc5[nH]cc(c45)C[C@H]32)c1 [Compound 91, ((6aR,9R)-7-(3-methoxybenzyl)-4,6,6a,7,8,9-hexahydroindolo[4,3-fg]quinolin-9-yl)(pyrrolidin-1-yl)methanone] | 128 nM |
| COc1cccc(CN2C[C@@H](C(=O)N3CCCC3)C=C3c4cccc5[nH]cc(c45)C[C@H]32)c1 [Compound 91a, ((6aR,9S)-7-(3-methoxybenzyl)-4,6,6a,7,8,9-hexahydroindolo[4,3-fg]quinolin-9-yl)(pyrrolidin-1-yl)methanone] | > 1230 nM |
| CCN(C)C(=O)[C@H]1C=C2c3cccc4[nH]cc(c34)C[C@H]2N(Cc2cccc(OC)c2)C1 [Compound 92a, (6aR,9S)—N-ethyl-7-(3-methoxybenzyl)-N-methyl-4,6,6a,7,8,9-hexahydroindolo[4,3-fg]quinoline-9-carboxamide] | > 1230 nM |
| CCCN(CC)C(=O)[C@H]1C=C2c3cccc4[nH]cc(c34)C[C@H]2N(Cc2cccc(OC)c2)C1 [Compound 93a, (6aR,9S)—N-ethyl-7-(3-methoxybenzyl)-N-propyl-4,6,6a,7,8,9-hexahydroindolo[4,3-fg]quinoline-9-carboxamide] | 230 nM |
| COc1cccc(CN2C[C@@H](C(=O)N3[C@@H](C)C[C@@H]3C)C=C3c4cccc5[nH]cc(c45)C[C@H]32)c1 [Compound 94a, ((2S,4S)-2,4-dimethylazetidin-1-yl)((6aR,9S)-7-(3-methoxybenzyl)-4,6,6a,7,8,9-hexahydroindolo[4,3-fg]quinolin-9-yl)methanone] | 1210 nM |
| CC[C@@H](C)NC(=O)[C@H]1C=C2c3cccc4[nH]cc(c34)C[C@H]2N(Cc2ccccc2)C1 [Compound 95a, (6aR,9S)-7-benzyl-N—((R)-sec-butyl)-4,6,6a,7,8,9-hexahydroindolo[4,3-fg]quinoline-9-carboxamide] | 123 nM |
| [2H]C(c1cccc(OC)c1)N1C[C@H](C(=O)N(CC)CC)C=C2c3cccc4[nH]cc(c34)C[C@H]21 (stereo partly drawn) [Compound 96, (6aR,9R)—N,N-diethyl-7-((3-methoxyphenyl)methyl-d)-4,6,6a,7,8,9-hexahydroindolo[4,3-fg]quinoline-9-carboxamide] | 3.99 nM |
| [2H]C(c1cccc(OC)c1)N1C[C@@H](C(=O)N(CC)CC)C=C2c3cccc4[nH]cc(c34)C[C@H]21 (stereo partly drawn) [Compound 96a, (6aR,9S)—N,N-diethyl-7-((3-methoxyphenyl)methyl-d)-4,6,6a,7,8,9-hexahydroindolo[4,3-fg]quinoline-9-carboxamide] | 1000 nM |
| CCN(CC)C(=O)[C@H]1C=C2c3cccc4[nH]cc(c34)C[C@H]2N(Cc2cccc(C)c2)C1 [Compound 98a, (6aR,9S)—N,N-diethyl-7-(3-methylbenzyl)-4,6,6a,7,8,9-hexahydroindolo[4,3-fg]quinoline-9-carboxamide] | 910 nM |
| CCN(CC)C(=O)[C@H]1C=C2c3cccc4[nH]cc(c34)C[C@H]2N(Cc2ccccc2C)C1 [Compound 99a, (6aR,9S)—N,N-diethyl-7-(2-methylbenzyl)-4,6,6a,7,8,9-hexahydroindolo[4,3-fg]quinoline-9-carboxamide] | 802 nM |
| CCN(CC)C(=O)[C@H]1C=C2c3cccc4[nH]cc(c34)C[C@H]2N(Cc2ccc3ccccc3c2)C1 [Compound 100a, (6aR,9S)—N,N-diethyl-7-(naphthalen-2-ylmethyl)-4,6,6a,7,8,9-hexahydroindolo[4,3-fg]quinoline-9-carboxamide] | > 1230 nM |
| CCN(CC)C(=O)[C@H]1C=C2c3cccc4[nH]cc(c34)C[C@H]2N(Cc2cccc3ccccc23)C1 [Compound 101a, (6aR,9S)—N,N-diethyl-7-(naphthalen-1-ylmethyl)-4,6,6a,7,8,9-hexahydroindolo[4,3-fg]quinoline-9-carboxamide] | 750 nM |
| CN(C)C(=O)[C@H]1C=C2c3cccc4[nH]cc(c34)C[C@H]2N(Cc2ccccc2)C1 [Compound 102a, (6aR,9S)-7-benzyl-N,N-dimethyl-4,6,6a,7,8,9-hexahydroindolo[4,3-fg]quinoline-9-carboxamide] | 349 nM |
| CCN(C)C(=O)[C@H]1C=C2c3cccc4[nH]cc(c34)C[C@H]2N(CC2CCCC2)C1 [Compound 103a, (6aR,9S)-7-(cyclopentylmethyl)-N-ethyl-N-methyl-4,6,6a,7,8,9-hexahydroindolo[4,3-fg]quinoline-9-carboxamide] | 511 nM |

Test system: not listed separately
Test: in vitro
Format: in vitro ADME, rat
Conditions: RLM (male Sprague-Dawley) 0.50 mg/mL, NADPH 1 mM, 1 μM compound, pH 7.4, 37° C., 60 min
Source text: RLM Stability Pooled RLM from male Sprague-Dawley rats (Xenotech R1000) were used.

| Structure (SMILES) | Intrinsic clearance (Clint) | half-life (t1/2) |
| --- | --- | --- |
| [2H]C([2H])([2H])Oc1cccc(CN2C[C@H](C(=O)N(CC)CC)C=C3c4cccc5[nH]cc(c45)C[C@H]32)c1 [Compound 56, (6aR,9R)—N,N-diethyl-7-(3-(methoxy-d3)benzyl)-4,6,6,7,8,9-hexahydroindolo[4,3-fg]quinoline-9-carboxamide] | 224.5 µL/min/mg | 6.2 min |

Test system: not listed separately
Test: in vitro
Format: in vitro ADME, mouse
Conditions: MLM (male CD-1) 0.50 mg/mL, NADPH 1 mM, 1 μM compound, pH 7.4, 37° C., 60 min
Source text: MLM Stability Pooled MLM from male CD-1 mice (BIOIVT M00501) were used.

| Structure (SMILES) | Intrinsic clearance (Clint) | half-life (t1/2) |
| --- | --- | --- |
| [2H]C([2H])([2H])Oc1cccc(CN2C[C@H](C(=O)N(CC)CC)C=C3c4cccc5[nH]cc(c45)C[C@H]32)c1 [Compound 56, (6aR,9R)—N,N-diethyl-7-(3-(methoxy-d3)benzyl)-4,6,6,7,8,9-hexahydroindolo[4,3-fg]quinoline-9-carboxamide] | 223.3 µL/min/mg | 6.2 min |

Test system: not listed separately
Test: in vitro
Format: in vitro ADME, human
Conditions: HLM 0.50 mg/mL, NADPH 1 mM, 1 μM compound, pH 7.4, 37° C., 60 min

| Structure (SMILES) | Intrinsic clearance (Clint) | half-life (t1/2) |
| --- | --- | --- |
| [2H]C([2H])([2H])Oc1cccc(CN2C[C@H](C(=O)N(CC)CC)C=C3c4cccc5[nH]cc(c45)C[C@H]32)c1 [Compound 56, (6aR,9R)—N,N-diethyl-7-(3-(methoxy-d3)benzyl)-4,6,6,7,8,9-hexahydroindolo[4,3-fg]quinoline-9-carboxamide] | 113.3 µL/min/mg | 12.2 min |
| CN1C[C@H](C(=O)N2CCCC2)C=C2c3cccc4[nH]cc(c34)C[C@H]21 [Int22] | <9.6 µL/min/mg | >145 min |
